# System: Mycobacterium tuberculosis
# Assay: Antimicrobial activity against multidrug resistant Mycobacterium tuberculosis
# Assay type: functional
smiles,measurement,value
C/C=C1/CN2CC[C@@]34c5ccccc5N5/C=C6/[C@H]7C[C@@H]8N(CC[C@@]89c8ccccc8N(/C=C(/[C@H]1C[C@H]23)[C@H]54)[C@@H]69)C/C7=C/C [BISNORDIHYDROTOXIFERINE],MIC,6.25 µg/mL

# Reference: ChEMBL document CHEMBL1144690, “Isolation of cytotoxic metabolites from targeted peruvian amazonian medicinal plants” (2008)
